Assay results from patent publication US20180161314A1, “Methods for Treating Hyperuricemia and Related Diseases” (Ardea Biosciences, Inc., priority 2010, published 2018).
“And” between values parts separate entries of the source, which are not always exact repeats. Equal values may be shown once.

Key:
PNP = target: T1, PNP (Homo sapiens, UniProt P00491); conditions: cited from earlier work
T1 sequence (P00491 1-289): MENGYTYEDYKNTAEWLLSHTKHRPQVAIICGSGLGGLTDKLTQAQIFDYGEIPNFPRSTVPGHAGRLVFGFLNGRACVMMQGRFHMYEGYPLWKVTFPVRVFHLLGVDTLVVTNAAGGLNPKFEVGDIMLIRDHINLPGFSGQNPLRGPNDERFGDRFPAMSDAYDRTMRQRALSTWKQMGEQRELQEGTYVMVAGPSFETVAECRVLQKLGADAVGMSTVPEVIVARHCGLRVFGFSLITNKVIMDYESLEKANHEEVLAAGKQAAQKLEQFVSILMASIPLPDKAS

[1] = test system: hyperuricemic subjects with symptomatic gout; test: Pilot study of drug 1 versus placebo and open-label allopurinol in hyperuricemic subjects with symptomatic gout (Examples 1, 2, 20); assay type: in vivo, human
Method: Study Objectives • To compare the proportion of subjects whose sUA level is <6.0 mg/dL following 2 weeks of continuous treatment with drug 1 compared to allopurinol and placebo. • To evaluate the percent reduction from baseline in sUA levels following 2 weeks of continuous treatment with drug 1 in combination with allopurinol. • To evaluate the proportion of subjects whose sUA levels are <6.0 mg/dL, <5.0 mg/dL and <4.0 mg/dL at each visit. • To evaluate the absolute and percent reduction from baseline in sUA levels at each visit. • To evaluate the maximum percent reduction in sUA levels from baseline during the entire treatment period. • To evaluate percent change in 24-hour urine uric acid level from baseline to Day 15. • To evaluate the safety and tolerability of drug 1 in subjects with gout. • To evaluate the pharmacokinetics, safety and tolerability of drug 1 in combination with allopurinol in subjects with gout.
A randomized, double-blind, placebo-controlled, dose titration, safety and pharmacodynamics pilot study, in approximately 26 hyperuricemic subjects with symptomatic gout enrolled at 2-3 investigational sites in N America, of: • drug 1 versus placebo and open-label allopurinol (Cohort 1); and • drug 1 in combination with allopurinol versus continued allopurinol alone (Cohort 2)
Subjects are randomized 7 days prior to Day 1 in a double-blind fashion to receive drug 1, drug 1 matching placebo, or open-label allopurinol (Cohort 1) or drug 1 or drug 1 matching placebo in combination with allopurinol (Cohort 2).
To reduce the incidence of gout flares, colchicine 0.6 mg qd is administered to all subjects starting 14 days prior to the Baseline (Day 1) visit. Subjects continue colchicine administration throughout the Treatment Period, discontinuing at the End of Study visit (one week after the last dose of study medication).
Cohort 1 approx 20 subjects randomized in 2:1:1 ratio treatment groups—drug 1:placebo:allopurinol.
Subjects randomized to double-blind treatment: • approx 10 subjects randomized to receive drug 1 200 mg qd (4 drug 1 50 mg capsules/day) for one week, followed by drug 1 400 mg qd (8 drug 1 50 mg capsules/day) for one week. • 5 subjects randomized to receive drug 1 matching placebo qd for 2 weeks (week 1-4 drug 1 matching placebo capsules; week 2-8 drug 1 matching placebo capsules)
Subjects randomized to open-label treatment: • 5 subjects randomized to receive allopurinol 300 mg tablets qd for 2 weeks Cohort 2 approx 6 subjects randomized in 5:1 ratio treatment groups—drug+allopurinol:placebo+allopurinol
For Cohorts 1 and 2, subjects randomized to double-blind treatment take drug 1 or drug 1 matching placebo every 24 hours (±1 h) (morning dose) for a period of 2 weeks. For Cohort 1, subjects randomized to open-label treatment take allopurinol every 24 hours (±1 h) (morning dose) for a period of 2 weeks.
Subjects are requested to then drink approximately 240 mL of water 1-2 hours after dosing.
1. Male or post-menopausal or surgically sterile female. 2. 18-75 years of age. 3. Hyperuricemic, defined as: Cohort 1: Screening serum uric acid is ≥8 mg/dL Cohort 2: Screening serum uric acid is ≥10 mg/dL 4. Subject meets one or more of the 1977 American Rheumatism Association (ARA) criteria for the diagnosis of acute arthritis of primary gout. 5. Subject is willing and able to give informed consent and adhere to visit/protocol schedules.
Blood samples (4.5 mL) are collected and sUA levels determined at Screening (repeated as necessary prior to Day 1), Baseline (Day 1) (1 hour and 8 hours post-dose), Day 8 (trough, 1 hour and 8 hours post-dose), Day 9 (24 hours after Day 8 dose), and Day 14 (trough and 8 hours post-dose), Day 15 and End of Study. An additional sUA level is obtained on Day 7 for Cohort 2 subjects prior to the first dose of allopurinol.
Primary pharmacodynamics parameter is the proportion of subjects with serum uric acid <6.0 mg/dL following 2 weeks of treatment. […]

xanthine oxidase = xanthine oxidase (Homo sapiens, UniProt P47989); conditions: cited from earlier work
xanthine oxidase, sequence (P47989 whole entry, species assumed): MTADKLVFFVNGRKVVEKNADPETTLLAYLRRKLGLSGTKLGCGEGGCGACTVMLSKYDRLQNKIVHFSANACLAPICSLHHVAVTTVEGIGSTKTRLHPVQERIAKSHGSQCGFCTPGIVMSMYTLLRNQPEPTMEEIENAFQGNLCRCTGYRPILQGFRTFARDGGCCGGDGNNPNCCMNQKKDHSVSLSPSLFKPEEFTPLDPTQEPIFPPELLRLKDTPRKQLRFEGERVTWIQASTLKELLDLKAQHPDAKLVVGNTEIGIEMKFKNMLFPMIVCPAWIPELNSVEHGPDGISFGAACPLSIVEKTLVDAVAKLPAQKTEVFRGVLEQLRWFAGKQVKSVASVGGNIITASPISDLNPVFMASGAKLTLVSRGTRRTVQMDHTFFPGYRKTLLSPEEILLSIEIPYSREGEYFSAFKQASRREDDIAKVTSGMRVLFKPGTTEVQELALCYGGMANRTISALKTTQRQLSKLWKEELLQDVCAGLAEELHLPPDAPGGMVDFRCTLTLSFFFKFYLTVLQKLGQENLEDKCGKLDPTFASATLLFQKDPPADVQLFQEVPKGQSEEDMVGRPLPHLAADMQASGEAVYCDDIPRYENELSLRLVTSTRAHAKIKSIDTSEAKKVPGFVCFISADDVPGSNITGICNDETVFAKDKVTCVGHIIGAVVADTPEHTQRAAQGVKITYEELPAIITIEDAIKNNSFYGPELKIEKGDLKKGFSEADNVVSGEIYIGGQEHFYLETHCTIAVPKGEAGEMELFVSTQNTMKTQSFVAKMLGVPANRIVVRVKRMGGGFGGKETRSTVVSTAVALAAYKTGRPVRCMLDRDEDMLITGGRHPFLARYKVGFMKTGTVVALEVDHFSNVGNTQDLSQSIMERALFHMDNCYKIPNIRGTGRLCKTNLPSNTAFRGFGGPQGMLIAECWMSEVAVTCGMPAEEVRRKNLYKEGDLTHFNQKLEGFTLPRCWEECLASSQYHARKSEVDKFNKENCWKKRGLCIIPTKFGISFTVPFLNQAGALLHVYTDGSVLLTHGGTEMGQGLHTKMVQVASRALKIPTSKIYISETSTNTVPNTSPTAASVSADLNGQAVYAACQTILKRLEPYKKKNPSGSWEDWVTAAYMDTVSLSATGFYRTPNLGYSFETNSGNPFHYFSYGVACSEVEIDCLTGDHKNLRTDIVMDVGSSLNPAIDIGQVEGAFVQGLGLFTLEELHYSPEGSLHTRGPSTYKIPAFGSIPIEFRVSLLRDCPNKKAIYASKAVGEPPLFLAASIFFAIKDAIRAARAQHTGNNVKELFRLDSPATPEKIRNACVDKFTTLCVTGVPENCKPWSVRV

[2] = Cohort 1, preliminary safety summary

Question: Which results are given for O=C(O)CSc1nnc(Br)n1-c1ccc(C2CC2)c2ccccc12 [Drug 1, Sodium 2-(5-bromo-4-(4-cyclopropylnaphthalen-1-yl)-4H-1,2,4-triazol-3-ylthio)acetate]?
Answer: Inhibition of PNP (PNP): does not significantly inhibit; ECG findings including interval measurements [1, 2]: No clinically significant ECG findings; Tolerability (SAEs, deaths, discontinuations due to adverse events) [1, 2]: well tolerated in this study, with no SAEs, deaths or discontinuations due to adverse events; Responders Day 14 (those with sUA <6 mg/dL) ([1]; Cohort 1, Day 14, responders/subjects, drug 1 200 mg qd 1 week then 400 mg qd 1 week, allopurinol 300 mg qd 2 weeks): 6/10^2; sUA at Day 14 of individual patients not below 6 mg/dL ([1]; Day 14, two non-responders without baseline sUA above 11 mg/dL): 6.2 mg/dL and 6.3 mg/dL; Reduction in serum urate levels, on average ([1]; after the first week of treatment (200 mg qd)): 40%; Reduction in sUA, patient with the lowest baseline CrCl ([1]; baseline CrCl 53 ml/min): 40%; Reduction in sUA, all patients with renal impairment ([1]; by the end of week 2, mild to moderate diminished renal function): ≥ 30%; Plasma levels in gout patients ([1]; compared with Phase 1 healthy volunteer studies): generally consistent with those observed in Phase 1 healthy volunteer studies; Linear trend of sUA reduction versus creatinine clearance ([1]; day 14, 400 mg qd, Cockcroft-Gault and MDRD methods): increasing benefit with lower CrCL; Increase in serum creatinine (SCr), Grade 1 AE ([1]; two patients while on 400 mg QD, SCr fell back to normal limits after study): > 30%; Inhibition of xanthine oxidase (xanthine oxidase): does not significantly inhibit
